{"source": "paper PMC8954575", "about": "“Norepinephrine and Serotonin Can Modulate the Behavior of the Probiotic Enterococcus faecium NCIMB10415 towards the Host: Is a Putative Surface Sensor Involved?” (Microorganisms, 2022)", "molecular_target": "T1, VicK (WalK) (Enterococcus faecium, UniProt Q3XYG9)", "T1 construct": "VicK (WalK) from a synthetic codon-optimized gene in pET-15b, N-terminal His-tag, purified from E. coli BL21 with DDM, RED-NHS labelled", "T1 sequence (Q3XYG9 1-611)": "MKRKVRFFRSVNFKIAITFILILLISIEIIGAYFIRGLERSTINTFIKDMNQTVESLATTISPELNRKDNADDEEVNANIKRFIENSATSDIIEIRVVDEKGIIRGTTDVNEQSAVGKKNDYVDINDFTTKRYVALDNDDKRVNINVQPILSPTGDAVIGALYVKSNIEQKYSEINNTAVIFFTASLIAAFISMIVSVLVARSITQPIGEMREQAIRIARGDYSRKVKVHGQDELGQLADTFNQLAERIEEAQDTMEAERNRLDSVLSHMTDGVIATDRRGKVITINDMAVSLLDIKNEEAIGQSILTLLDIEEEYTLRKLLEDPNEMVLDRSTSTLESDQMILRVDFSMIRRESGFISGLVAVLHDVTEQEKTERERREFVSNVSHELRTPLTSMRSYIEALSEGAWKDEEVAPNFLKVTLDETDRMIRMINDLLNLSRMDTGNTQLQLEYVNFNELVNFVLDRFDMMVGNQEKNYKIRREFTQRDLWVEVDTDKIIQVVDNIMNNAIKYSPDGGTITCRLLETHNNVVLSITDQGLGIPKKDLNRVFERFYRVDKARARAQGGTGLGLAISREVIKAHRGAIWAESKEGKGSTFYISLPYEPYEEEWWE", "experiment": "Micro-Scale Thermophoresis with purified labelled protein", "type": "binding", "data": [{"smiles": "NCCc1c[nH]c2ccc(O)cc12", "note": "[5HT, serotonin]", "values": [{"measurement": "Kd", "result": "4.5 ± 0.07", "unit": "mM"}]}]}
